Numbered stars: 1 amine (or outer) side, 2 acyl side, 3 side chain; on linkers, the order of the positions; unused ones are H or OH. Square brackets hold non-standard residues; d marks the D form. Ends that are not written are not given here. Peptide text beside a SMILES is read from it. Nip(3R) = O=C([C@@H]1CCCN([*:1])C1)[*:2]; Dmt = Cc1cc(O)cc(C)c1C[C@H](N)C(=O)O; Inp = O=C(O)C1CCNCC1
Tests used:
[1] = Degradation by the brain homogenate; assay type: in vitro ADME; conditions: rat brain homogenate 100 µL (10 mg protein/mL, 50 mM Tris-HCl pH 7.4) + 100 µL peptide 0.5 mM, final 200 µL, 37 °C, 0-60 min, HPLC read-out, ln 2/k; mean ± SEM of four independent experiments in duplicate; read-out: T0.5 (degradation half-life)
Description: The degradation studies were performed on the rat brain homogenate according to the modified method described elsewhere. Briefly, rat brains, after isolation and homogenization in 50 mM Tris–HCl (pH 7.4), were stored at − 80 °C until used. During the test, the aliquots (100 µL, 10 mg protein/mL) were incubated with 100 µL of a peptide (0.5 mM) over 0, 7.5, 15, 22.5, 30, and 60 min at 37 °C in a final volume of 200 µL. The reaction was stopped at the required time by placing the tube on ice and acidifying it with 20 µL of 1 M aqueous HCl solution. Then, the aliquots were centrifuged at 20,000×g for 10 min at 4 °C. The obtained supernatants were filtered and analyzed by HPLC on a Vydac C18 column (5 µm, […]) using the solvent system of 0.1% trifluoroacetic acid (TFA) in water (A) and 80% acetonitrile in water containing 0.1% TFA (B) and a linear gradient of 0–100% B over 25 min. The rate constants of degradation (k) were obtained as described earlier by a least square linear regression analysis of logarithmic peak areas [ln(A/AD)], where A—the amount of peptide remaining, AD—the initial amount of peptide, versus time. Degradation half-lives (t1/2) were calculated from the rate constants as ln 2/k.

SH-SY5Y cells = test: Intracellular ROS production in 6-OHDA-treated SH-SY5Y cells; assay type: cell-based, human; conditions: 6-OHDA 100 µM; for decrease of ROS production stimulated by 6-OHDA: peptide at both 1 and 10 µM
Description: The detection of ROS generated in injured cells was evaluated using the 5(6)-carboxy-2ʹ,7ʹ-dichlorofluorescein diacetate (carboxy-H2DCFDA) reagent (Invitrogen, Bleiswijk, Netherlands). After incubation, cells were washed with ice-cold Phosphate-Buffer Saline (PBS). Then, the carboxyl-H2DCFDA (100 µL, 20 µM) reagent was added and incubated for 1 h at 37 °C. Finally, the fluorescence intensity was measured at wavelengths of […], and ROS levels were presented in percentage of control (non-treated cells).

[2] = test system: LPS-stimulated RAW 264.7 cells; test: Lipid peroxidation in LPS-stimulated RAW 264.7 cells (DPPP probe); assay type: cell-based, mouse; conditions: 24 h; for decrease of membrane lipids' oxidation: lowest concentration used (0.1 µM)
Description: The level of lipid peroxidation was evaluated after RAW 264.7 cells incubation with peptides for 24 h. Then, the cells were loaded with 50 µM diphenyl-1-pyrenylphosphine (DPPP) probe for 15 min, and fluorescence was read at 360 nm excitation and 460 nm emission wavelengths.

[3] = test system: Male Swiss albino CD1 mice; test: Spontaneous locomotor activity after icv injection; assay type: in vivo, mouse; conditions: healthy mice, recording from 10 min after injection, 8-10 mice per group
Description: Male Swiss albino CD1 mice (JANVIER LABS, Le Genest-Saint-Isle, France), weighing 20–26 g, were used in the in vivo experiments. The animals were housed in Makrolon cages (L: 40 cm, W: 25 cm, H: 18 cm; 20 mice/cage), with free access to a standard semisynthetic laboratory diet (RM3, SDS, DIETEX-France, Saint-Gratien, France). All animals were kept in a ventilated room, at a temperature of 22 ± 1 °C, under a 12-h light/12-h dark cycle (lights on between 7:00 a.m. and 7:00 p.m.).
Intracerebroventricular (icv) injections (10 µL/mouse) of R-6 and its analogs were performed in the left brain ventricle of manually immobilized mice, with a Hamilton microsyringe ([…], Hamilton, Bonaduz, Switzerland) connected to a needle (length: 3.5 mm, diameter: 0.5 mm), as described elsewhere. Intracerebroventricular injections were performed by an experienced investigator, who frequently controlled the regularity and success of the injections using a methylene blue dye and observed (after sacrifice and frontal brain sectioning) that the injection was successful in more than 95% of trials. It was also verified in several animals, after sacrifice, that the mark of the needle puncture on the parietal bone was located at least 1.5 mm behind the bregma and at least 2.5 mm before the lambda, with laterality between 1 and 2 mm relative to the brain median line. This corresponds to stereotaxic coordinates of the left lateral ventricle in Lehmann’s atlas for mice (Lehmann, 1974): anteriority 2.95e4.15 mm, laterality 0.95e2 mm, and depth 3e4.5 mm. All drugs for icv administration were dissolved in 0.9% NaCl just before treatment. The icv injection method was approved by the Regional Ethical Committee for Animal Experimentation (Normandy; no. N/10-04-04-12).
Tested peptides were dissolved in DMSO and diluted with saline solution to the desired concentrations.
Locomotor activity was assessed automatically in a computerized actimeter (Omnitech Electronics, Inc., Columbus, Ohio, USA) which monitored horizontal displacements and vertical movements. Ten minutes after the icv injection, mice were placed individually in 20 × 20 × 30 cm compartments in a dimly illuminated and quiet room, and then motor activity was recorded. The responses were expressed as the number of crossed beams by the mouse during three consecutive 20 min periods.

[4] = test system: LPS-stimulated RAW 264.7 cells; test: Nitric oxide production in LPS-stimulated RAW 264.7 cells (Griess); assay type: cell-based, mouse; conditions: LPS 1 µg/mL, 24 h
Description: The level of NO production was determined in RAW 264.7 cells. Briefly, after cells attachment, they were treated with LPS (Millipore Sigma, Darmstadt, Germany) at 1 µg/mL for 24 h, and then the peptides were added for an additional 24 h. After cells’ treatment, the medium was collected, and the accumulation of NO metabolite in the cell culture supernatant was measured using Griess reagent (1% sulfanilamide and 0.1% naphthylethylenediamine dihydrochloride; Sigma Aldrich), where 50 µL of the supernatant was mixed with 50 µL of Griess reagent (40 mg/mL) in a 96-well plate. After incubation at room temperature and darkness for 10 min, the absorbance was measured at 540 nm. Cells treated with LPS without samples were used as the positive control of the inflammatory response.

[5] = peptide 0.1 µM (lowest concentration)

Compound | half-life at 0.25 mM [1] | decrease of ROS production stimulated by 6-OHDA (SH-SY5Y cells; 6 h) | decrease of membrane lipids' oxidation [2] | effect on spontaneous (horizontal) locomotor activity [3] | effect on LPS-induced NO production [4, 5] | other results
Cc1cc(O)cc(C)c1C[C@H](N)C(=O)N1CCC[C@H]1C(=O)N[C@@H](CC(C)C)C(=O)N[C@@H](CC(=O)O)C(=O)N[C@@H](CC(C)C)C(=O)N[C@@H](Cc1ccccc1)C(=O)O [analog 1, Dmt-Pro-Leu-Asp-Leu-Phe-OH] (H-[Dmt]PLDLF-OH) | 20.8 ± 0.85 min |  |  |  |  | effect on ROS production (SH-SY5Y cells; peptide 10 µM): couldn’t decrease
CC(C)C[C@H](NC(=O)[C@@H]1CCCN(C(=O)[C@@H](N)Cc2ccc(O)cc2)C1)C(=O)N[C@@H](CC(=O)O)C(=O)N[C@@H](CC(C)C)C(=O)N[C@@H](Cc1ccccc1)C(=O)O [analog 2, Tyr-(R)-Nip-Leu-Asp-Leu-Phe-OH] (H-Y[Nip(3R)]LDLF-OH) | 25.5 ± 0.4 min |  |  |  |  | 
CC(C)C[C@H](NC(=O)C1CCN(C(=O)[C@@H](N)Cc2ccc(O)cc2)CC1)C(=O)N[C@@H](CC(=O)O)C(=O)N[C@@H](CC(C)C)C(=O)N[C@@H](Cc1ccccc1)C(=O)O [analog 3, Tyr-Inp-Leu-Asp-Leu-Phe-OH] (H-Y[Inp]LDLF-OH) | 28.6 ± 0.95 min | about 60% | ~10% | do not affect locomotor activity | most effectively reduced | 
Cc1cc(O)cc(C)c1C[C@H](N)C(=O)N1CCC[C@@H](C(=O)N[C@@H](CC(C)C)C(=O)N[C@@H](CC(=O)O)C(=O)N[C@@H](CC(C)C)C(=O)N[C@@H](Cc2ccccc2)C(=O)O)C1 [analog 4, Dmt-(R)-Nip-Leu-Asp-Leu-Phe-OH] (H-[Dmt][Nip(3R)]LDLF-OH) | 30.4 ± 1.2 min |  |  |  | most effectively reduced | 
Cc1cc(O)cc(C)c1C[C@H](N)C(=O)N1CCC(C(=O)N[C@@H](CC(C)C)C(=O)N[C@@H](CC(=O)O)C(=O)N[C@@H](CC(C)C)C(=O)N[C@@H](Cc2ccccc2)C(=O)O)CC1 [analog 5, Dmt-Inp-Leu-Asp-Leu-Phe-OH] (H-[Dmt][Inp]LDLF-OH) | 38.5 ± 0.7 min | about 60% | ~10% | do not affect locomotor activity | most effectively reduced | inhibition of peroxidation ([2]; 0.1 µM): most significant inhibition; effect on LPS-induced NO production ([4]; peptide 10 µM): comparable to the level determined in unstimulated cells
CC(C)C[C@H](NC(=O)C1CCN(C(=O)[C@@H](N)Cc2ccc(O)cc2)CC1)C(=O)N[C@@H](CC(=O)O)C(=O)N[C@@H](CC(C)C)C(=O)N[C@@H](Cc1ccccc1)C(N)=O [analog 7, Tyr-Inp-Leu-Asp-Leu-Phe-NH2] (H-Y[Inp]LDLF-NH2) | 30.7 ± 0.35 min | about 60% | ~10% | do not affect locomotor activity | most effectively reduced | NO level reached (relative to unstimulated control) ([4]; LPS alone exceeded 330%): ~125%
YPLDLF [R-6, rubiscolin-6] | 14.3 ± 0.8 min |  |  | do not affect locomotor activity |  | decrease of intracellular ROS levels stimulated by 6-OHDA (SH-SY5Y cells; peptide 0.1 µM, 6 h): about 70%; effect on lipid peroxidation ([2]; 0.1-10 µM): no effect
YPLDLF-NH2 [analog 6, Tyr-Pro-Leu-Asp-Leu-Phe-NH2] | 23.2 ± 1.05 min |  |  |  |  | 
